Measurements from US20240327928A1, “METHOD FOR IDENTIFYING RESPONSIVENESS TO FIBROBLAST GROWTH FACTOR RECEPTOR 1 INHIBITOR THERAPY” (UNIVERSITÄT ZU KÖLN, priority 2021, published 2024).

Columns and labels:
[1] = test system: Ba/F3 cells expressing ΔEC-FGFR1; assay: Screening of Ba/F3 cells expressing ΔEC-FGFR1 with FGFR inhibitors (cellular ATP content after 96 hours); assay type: cell-based, murine; settings: IL3 depleted conditions
Source text: Located genes in this region (middle, bottom; positive strand, negative strand), break coverage (top), location of tail-to-tail breaks (arrows and black dashed lines) are shown. Normal exon structure of NSD3 and FGFR1 with the genomic breaks are indicated by an asterisk independent of the chromosomal position shown above (bottom). b) Resulting rearrangement of the t-to-t break (dashed lines, top) and spanning reads from whole transcriptome sequencing data (bottom) is shown. c) PCR from corresponding cDNA with two different primer pairs, spanning the t-to-t break and FGFR1 (left) and matched normal cDNA (right) d) Hybrid-capture-based genomic sequencing (468×depth) copy number plot zoomed to the location of FGFR1 (middle). Tumor sample is from a patient with unknown response upon FGFR inhibition. Normal exon structure of FGFR1 (bottom), location of a tail-to-tail break (arrows), and break coverage (top) is shown. e) The resulting rearrangement of the t-to-t break is shown (dashed lines). f) Break spanning reads detected by ARCHER sequencing technique are indicated. g) Immunoblotting of transformed Baf3 cells (Baf3 FGFR1 AEC and Baf3 EML4-ALK as control) vs. non-transformed Baf3 cells transduced with empty Vector (Baf3 e.V.), FGFR1 alpha (Baf3 FGFR1aplpa), and FGFR1 beta (Baf3 FGFR1beta). […]

[2] = test system: FGFR1-amplified lung cancer cell lines; assay: GI50 screening of FGFR1-amplified lung cancer cell lines against FGFR inhibitors (6 resistant lines); assay type: cell-based; settings: 6 of 8 FGFR1-amplified lung cancer cell lines, read-out: half-growth-inhibitory concentration, or GI50
Method: (§1) Bars are indicated by number (1) (GI50>1 μM) or number (2) (GI50>1 μM) b) Average copy number of 6 cell lines not sensitive upon FGFR inhibition (marked by number (1)) and 2 cell lines which are sensitive upon FGFR inhibition (marked by number (2)). Copy number was extracted from genomic sequencing or whole exome sequencing data and plotted to chromosome 8 (hg19) with ROBOCOP. Location of NSD3 and FGFR1 with grey-backed surface c) Average tumor growth reduction of 8 patient derived xenograft tumor models treated with BG.J398 vs. vehicle. All models were confirmed to be FGFR1 amplified by FGFR1 FISH. Each bar represents an experiment of at least six mice and 12 tumors. Bars are marked by number (1) (tumor reduction of <30%) or by number (2) (tumor reduction of >30%). d) Average copy number of 5 patient derived xenograft tumor models not benefitting from FGFR inhibition (marked by number (1)) and 3 patient derived xenograft tumor (PDX) models which benefit from FGFR inhibition (marked by number (2)). […]
(§2) To gain a deeper understanding of 8p11-8p12-amplified lung cancer tumors and to link specific patterns of the 8p12-8p11 amplicon structure with FGFR1 dependency, the inventors analyzed an independent cohort of 26 8p-amplified tumor specimens with known sensitivity to FGFR inhibition. […]

[3] = test system: FGFR1-amplified squamous cell lung cancer; assay: Patients with FGFR1-amplified squamous cell lung cancer treated with an FGFR inhibitor (phase I clinical trial / off-label use); assay type: in vivo, human; settings: 8 patients treated with BG.J398, phase I clinical trial
Method: Bars are indicated by number (1) (GI50>1 μM) or number (2) (GI50>1 μM) b) Average copy number of 6 cell lines not sensitive upon FGFR inhibition (marked by number (1)) and 2 cell lines which are sensitive upon FGFR inhibition (marked by number (2)). Copy number was extracted from genomic sequencing or whole exome sequencing data and plotted to chromosome 8 (hg19) with ROBOCOP. Location of NSD3 and FGFR1 with grey-backed surface c) Average tumor growth reduction of 8 patient derived xenograft tumor models treated with BG.J398 vs. vehicle. All models were confirmed to be FGFR1 amplified by FGFR1 FISH. Each bar represents an experiment of at least six mice and 12 tumors. Bars are marked by number (1) (tumor reduction of <30%) or by number (2) (tumor reduction of >30%). d) Average copy number of 5 patient derived xenograft tumor models not benefitting from FGFR inhibition (marked by number (1)) and 3 patient derived xenograft tumor (PDX) models which benefit from FGFR inhibition (marked by number (2)). Copy number was extracted from genomic sequencing data and plotted to chromosome 8 (hg19) with ROBOCOP. e) Tumor volume change of patients with squamous cell lung cancer harboring FGFR1 amplification and treated with BG.J398. […]
Finally, the inventors analyzed biopsy specimens obtained from 10 patients with FGFR1-amplified squamous cell lung cancer. […]

[4] = test system: FGFR1 amplified patient derived xenograft (PDX) models of squamous cell lung cancer; assay: Patient derived xenograft tumor models treated with BG.J398 vs. vehicle; assay type: in vivo, mice; settings: 20 mg/kg daily oral
Method: Bars are indicated by number (1) (GI50>1 μM) or number (2) (GI50>1 μM) b) Average copy number of 6 cell lines not sensitive upon FGFR inhibition (marked by number (1)) and 2 cell lines which are sensitive upon FGFR inhibition (marked by number (2)). Copy number was extracted from genomic sequencing or whole exome sequencing data and plotted to chromosome 8 (hg19) with ROBOCOP. Location of NSD3 and FGFR1 with grey-backed surface c) Average tumor growth reduction of 8 patient derived xenograft tumor models treated with BG.J398 vs. vehicle. All models were confirmed to be FGFR1 amplified by FGFR1 FISH. Each bar represents an experiment of at least six mice and 12 tumors. Bars are marked by number (1) (tumor reduction of <30%) or by number (2) (tumor reduction of >30%). d) Average copy number of 5 patient derived xenograft tumor models not benefitting from FGFR inhibition (marked by number (1)) and 3 patient derived xenograft tumor (PDX) models which benefit from FGFR inhibition (marked by number (2)). Copy number was extracted from genomic sequencing data and plotted to chromosome 8 (hg19) with ROBOCOP. e) Tumor volume change of patients with squamous cell lung cancer harboring FGFR1 amplification and treated with BG.J398. Tumor volume change was measured by RECIST criteria. […] TUM003 and TUM007 died during treatment and no sign of response. * labeled sample was an of label FGFR inhibitor treated patient where no RECIST data were available. f) Average copy number of 5 patients with progressive disease (marked by number (2)) and 4 patients with durable, partial response upon FGFR inhibition (marked by number (1), one patient was treated with an off label used FGFR inhibitor (GW786034 HCl). […]
Furthermore, the inventors analysed patient-derived 8p12-8p11-amplified squamous cell lung cancer xenotransplant models. In total, the inventors performed FGFR1 fluorescence in situ hybridization (FISH) on 35 patient derived xenograft (PDX) models from EpoBerlin, 39 PDX models from Crown Bioscience Inc., 3 samples of Moro Massimo as previously described. […]

DMS114 = assay: GI50 screening of FGFR1-amplified lung cancer cell lines against FGFR inhibitors; assay type: cell-based; settings: Homo sapiens, DMS-114; sensitive cell line DMS114; read-out: half-growth-inhibitory concentration, or GI50
Method: as §1, §2

H1581 = assay: as above; assay type: cell-based; settings: Homo sapiens, NCI-H1581; sensitive cell line H1581; read-out: half-growth-inhibitory concentration, or GI50
Method: as §1, §2

| Compound | sensitivity to FGFR inhibition [1] | GI50 [2] | patients with durable, partial response (tumor volume change by RECIST) [3] | patients with progressive disease (tumor volume change by RECIST) [3] | Average tumor growth reduction vs. vehicle ([4]; 3 PDX models which benefit, bars (2)) | Average tumor growth reduction vs. vehicle ([4]; 5 PDX models not benefitting, bars (1)) | PDX models sensitive to FGFR inhibition ([4]; 8 FGFR1 amplified PDX models) | GI50 (DMS114) | GI50 (H1581) |
| --- | --- | --- | --- | --- | --- | --- | --- | --- | --- |
| AZD4547 | highly sensitive |  |  |  |  |  |  |  |  |
| CCN1CCN(c2ccc(Nc3cc(N(C)C(=O)Nc4c(Cl)c(OC)cc(OC)c4Cl)ncn3)cc2)CC1 [BG.J398] | highly sensitive | > 1 µM | 3 patients | 5 patients | > 30% | < 30% | Three of the 8 patient derived xenotransplant (PDX) models were sensitive | < 1 µM | < 1 µM |
